In ChEMBL document CHEMBL5528051, “Chelerythrine Chloride is an Affinity-Labeling Inactivator of CYP3A4 by Modification of Cysteine239” (J Med Chem, 2024):

How the values were obtained:
CYP2C19 = CYP2C19 (Homo sapiens, UniProt P33261); assay: Inhibition of human CYP2C19 assessed as remaining activity at 50 uM using omeprazole as substrate preincubated for 3 mins followed by substrate addition and measured upto 15 mins by LC-MS/MS analysis; assay type: ADME; settings: probe omeprazole, time < 18 min, read-out: Activity
CYP2D6 = CYP2D6 (Homo sapiens, UniProt P10635); assay: Inhibition of human CYP2D6 assessed as remaining activity at 50 uM using dextromethorphan as substrate preincubated for 3 mins followed by substrate addition and measured upto 15 mins by LC-MS/MS analysis; assay type: ADME; settings: probe dextromethorphan, time < 18 min, read-out: Activity
Cytochrome P450 3A4 [1] = molecular target: T1, Cytochrome P450 3A4 (Homo sapiens, UniProt P08684); assay: Inhibition of wild type CYP3A4 (unknown origin) expressed in CHO cells using midazolam as substrate incubated for 6 hrs by LC-MS/MS analysis; assay type: ADME, cell-based
CYP3A4 [2] = molecular target: T2, CYP3A4 (Homo sapiens, UniProt P08684); assay: Inhibition of CYP3A4 (unknown origin) assessed as remaining activity at 50 uM incubated for 15 mins in presence of 20 mM NAC; assay type: ADME; settings: read-out: Activity
[3] = Chemical reactivity of compound to NAC in PBS at pH 7.4 by UV spectrometric assay; assay type: physicochemical; settings: buffer
CYP3A4 [4] = molecular target: T2, CYP3A4; assay: Inhibition of CYP3A4 (unknown origin) assessed as remaining activity at 50 uM incubated for 15 mins (reference value: 85 +/- 3.4%); assay type: ADME; settings: read-out: Activity
CYP2A6 = molecular target: T3, CYP2A6 (Homo sapiens, UniProt P11509); assay: Inhibition of human CYP2A6 assessed as remaining activity at 50 uM using coumarin as substrate preincubated for 3 mins followed by substrate addition and measured upto 15 mins by LC-MS/MS analysis; assay type: ADME; settings: probe coumarin, time < 18 min, read-out: Activity
T3 sequence (P11509 whole entry): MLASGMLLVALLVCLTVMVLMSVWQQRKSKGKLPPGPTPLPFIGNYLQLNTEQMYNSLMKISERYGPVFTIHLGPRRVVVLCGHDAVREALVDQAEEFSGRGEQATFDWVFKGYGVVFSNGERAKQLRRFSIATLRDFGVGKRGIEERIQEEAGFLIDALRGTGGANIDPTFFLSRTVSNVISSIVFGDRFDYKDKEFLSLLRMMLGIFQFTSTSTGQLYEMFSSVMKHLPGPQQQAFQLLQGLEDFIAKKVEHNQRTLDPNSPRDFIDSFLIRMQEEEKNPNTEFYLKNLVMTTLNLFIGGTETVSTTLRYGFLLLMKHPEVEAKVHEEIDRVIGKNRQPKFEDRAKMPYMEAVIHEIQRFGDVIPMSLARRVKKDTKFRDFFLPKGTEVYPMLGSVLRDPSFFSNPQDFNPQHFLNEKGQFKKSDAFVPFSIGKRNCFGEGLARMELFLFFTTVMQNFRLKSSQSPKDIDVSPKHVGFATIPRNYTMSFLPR

CYP3A4 [5] = molecular target: T2, CYP3A4; assay: Inhibition of CYP3A4 (unknown origin) assessed as remaining activity at 50 uM measured 15 mins before dialysis (reference value: 87.2 +/- 2.3 %); assay type: ADME; settings: read-out: Activity
CYP2C9 = CYP2C9 (Homo sapiens, UniProt P11712); assay: Inhibition of human CYP2C9 assessed as remaining activity at 50 uM using diclofenac sodium as substrate preincubated for 3 mins followed by substrate addition and measured upto 15 mins by LC-MS/MS analysis; assay type: ADME; settings: probe diclofenac sodium, time < 18 min, read-out: Activity
[6] = Chemical reactivity of compound to serine in PBS at pH 7.4 by UV spectrometric assay; assay type: physicochemical; settings: buffer
CYP3A4 [7] = molecular target: T2, CYP3A4; assay: Inhibition of CYP3A4 (unknown origin) assessed as remaining activity at 50 uM measured immediately (reference value: 100 %); assay type: ADME; settings: read-out: Activity
Cytochrome P450 3A4 [8] = molecular target: T1, Cytochrome P450 3A4; assay: Inhibition of CYP3A4 (unknown origin) at 10 to 50 uM by LC-MS/MS analysis; assay type: ADME; settings: TDE = time-dependent effect, dose lower 10 µM, time lower 5 min, dose upper 50 µM, time upper 15 min
CYP3A5 = CYP3A5 (Homo sapiens, UniProt P20815); assay: Inhibition of human CYP3A5 assessed as remaining activity at 50 uM using testosterone as substrate preincubated for 3 mins followed by substrate addition and measured upto 15 mins by LC-MS/MS analysis; assay type: ADME; settings: probe testosterone, time < 18 min, read-out: Activity
[9] = Chemical reactivity of compound to NAL in PBS at pH 7.4 by UV spectrometric assay; assay type: physicochemical; settings: buffer
CYP1A2 = molecular target: T4, CYP1A2 (Homo sapiens, UniProt P05177); assay: Inhibition of human CYP1A2 assessed as remaining activity at 50 uM using phenacetin as substrate preincubated for 3 mins followed by substrate addition and measured upto 15 mins by LC-MS/MS analysis (reference value: 85.4 +/- 3.42 %); assay type: ADME; settings: probe phenacetin, time < 18 min, read-out: Activity
T4 sequence (P05177 whole entry): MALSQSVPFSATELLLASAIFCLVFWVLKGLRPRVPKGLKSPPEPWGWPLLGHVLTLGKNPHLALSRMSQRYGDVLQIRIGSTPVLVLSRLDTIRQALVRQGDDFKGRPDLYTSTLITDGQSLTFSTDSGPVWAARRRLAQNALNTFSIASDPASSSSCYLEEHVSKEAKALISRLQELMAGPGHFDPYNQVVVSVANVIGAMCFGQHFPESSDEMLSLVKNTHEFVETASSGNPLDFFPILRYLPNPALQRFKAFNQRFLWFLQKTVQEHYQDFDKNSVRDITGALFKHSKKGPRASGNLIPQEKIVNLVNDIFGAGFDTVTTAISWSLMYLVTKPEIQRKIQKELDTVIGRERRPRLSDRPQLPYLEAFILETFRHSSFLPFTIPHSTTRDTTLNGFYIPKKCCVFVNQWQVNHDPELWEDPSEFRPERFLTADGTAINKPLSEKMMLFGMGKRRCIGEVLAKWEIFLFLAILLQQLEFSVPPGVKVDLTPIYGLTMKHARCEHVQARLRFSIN

CYP3A4 [10] = molecular target: T2, CYP3A4; assay: Inhibition of CYP3A4 (unknown origin) assessed as residual activity at 50 uM incubated for 5 to 15 mins in presence of ketoconazole; assay type: ADME; settings: with ketoconazole, time 5-15 min, read-out: Activity
CYP3A4 [11] = molecular target: T2, CYP3A4; assay: Inhibition of CYP3A4 (unknown origin) at 50 uM incubated for 15 mins by LC-MS/MS analysis; assay type: ADME
Cytochrome P450 3A4 [12] = molecular target: T1, Cytochrome P450 3A4; assay: Inhibition of CYP3A4 (unknown origin) incubated for 5 to 15 mins by LC-MS/MS analysis; assay type: ADME; settings: at 10 to 50 µM, dose lower 10 µM, time lower 5 min, dose upper 50 µM, time upper 15 min
Cytochrome P450 3A4 [13] = molecular target: T1, Cytochrome P450 3A4; assay: Inhibition of CYP3A4 (unknown origin) at 50 uM incubated for 5 to 15 mins in absence of NADPH by LC-MS/MS analysis; assay type: ADME; settings: time 5-15 min
CYP3A4 [14] = molecular target: T2, CYP3A4; assay: Inhibition of CYP3A4 (unknown origin) assessed as remaining activity at 50 uM measured 15 mins after dialysis (reference value: 53.8 +/- 2.9 %); assay type: ADME; settings: read-out: Activity
CYP2E1 = CYP2E1 (Homo sapiens, UniProt P05181); assay: Inhibition of human CYP2E1 assessed as remaining activity at 50 uM using 4-nitrophenol as substrate preincubated for 3 mins followed by substrate addition and measured upto 15 mins by LC-MS/MS analysis; assay type: ADME; settings: probe 4-nitrophenol, time < 18 min, read-out: Activity
Cytochrome P450 3A4 [15] = molecular target: T1, Cytochrome P450 3A4; assay: Inhibition of CYP3A4 (unknown origin) at 50 uM preincubated for 3 mins followed by NADPH addition and measured after 5 to 15 mins by LC-MS/MS analysis; assay type: ADME; settings: time 8-18 min
CYP2B6 = molecular target: T5, CYP2B6 (Homo sapiens, UniProt P20813); assay: Inhibition of human CYP2B6 assessed as remaining activity at 50 uM using bupropion.HCl as substrate preincubated for 3 mins followed by substrate addition and measured upto 15 mins by LC-MS/MS analysis; assay type: ADME; settings: buffer, probe bupropion.HCl, time < 18 min, read-out: Activity
T5 sequence (P20813 whole entry): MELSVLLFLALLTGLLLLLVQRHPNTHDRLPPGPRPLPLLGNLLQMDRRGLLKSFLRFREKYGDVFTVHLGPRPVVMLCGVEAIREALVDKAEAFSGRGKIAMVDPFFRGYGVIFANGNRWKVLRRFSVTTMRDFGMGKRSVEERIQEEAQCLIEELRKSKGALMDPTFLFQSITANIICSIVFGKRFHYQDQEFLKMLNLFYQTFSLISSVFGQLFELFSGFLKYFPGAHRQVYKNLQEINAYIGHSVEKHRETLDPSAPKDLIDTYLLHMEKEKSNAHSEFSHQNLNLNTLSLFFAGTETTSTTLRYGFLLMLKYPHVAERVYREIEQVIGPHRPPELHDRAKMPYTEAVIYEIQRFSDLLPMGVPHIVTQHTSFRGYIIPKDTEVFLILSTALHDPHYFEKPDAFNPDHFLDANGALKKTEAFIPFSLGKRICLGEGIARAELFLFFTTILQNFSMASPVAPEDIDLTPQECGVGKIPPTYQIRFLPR

CYP3A4 [16] = molecular target: T2, CYP3A4; assay: Inhibition of human CYP3A4 assessed as remaining activity at 50 uM using testosterone as substrate preincubated for 3 mins followed by substrate addition and measured upto 15 mins by LC-MS/MS analysis (reference value: 85.4 +/- 3.42 %); assay type: ADME; settings: probe testosterone, time < 18 min, read-out: Activity
CYP3A4 [17] = molecular target: T2, CYP3A4; assay: Inhibition of CYP3A4 (unknown origin) assessed as remaining activity at 50 uM incubated for 15 mins in presence of 2 mM NAC; assay type: ADME; settings: read-out: Activity
Cytochrome P450 3A4 [18] = molecular target: Cytochrome P450 3A4 (Homo sapiens, UniProt P08684, C239S); assay: Inhibition of CYP3A4 C239S mutant (unknown origin) expressed in CHO cells using midazolam as substrate incubated for 6 hrs by LC-MS/MS analysis; assay type: ADME, cell-based
Cytochrome P450 3A4 [19] = molecular target: T1, Cytochrome P450 3A4; assay: Time dependent inhibition of CYP3A4 (unknown origin) at 50 uM measured after 5 to 15 mins; assay type: ADME; settings: time 5-15 min
Cytochrome P450 3A4 [20] = molecular target: T1, Cytochrome P450 3A4; assay: Time dependent inhibition of CYP3A4 (unknown origin) at 50 uM measured after 5 to 15 mins in presence of NADPH; assay type: ADME; settings: time 5-15 min

T2 sequence (P08684 whole entry): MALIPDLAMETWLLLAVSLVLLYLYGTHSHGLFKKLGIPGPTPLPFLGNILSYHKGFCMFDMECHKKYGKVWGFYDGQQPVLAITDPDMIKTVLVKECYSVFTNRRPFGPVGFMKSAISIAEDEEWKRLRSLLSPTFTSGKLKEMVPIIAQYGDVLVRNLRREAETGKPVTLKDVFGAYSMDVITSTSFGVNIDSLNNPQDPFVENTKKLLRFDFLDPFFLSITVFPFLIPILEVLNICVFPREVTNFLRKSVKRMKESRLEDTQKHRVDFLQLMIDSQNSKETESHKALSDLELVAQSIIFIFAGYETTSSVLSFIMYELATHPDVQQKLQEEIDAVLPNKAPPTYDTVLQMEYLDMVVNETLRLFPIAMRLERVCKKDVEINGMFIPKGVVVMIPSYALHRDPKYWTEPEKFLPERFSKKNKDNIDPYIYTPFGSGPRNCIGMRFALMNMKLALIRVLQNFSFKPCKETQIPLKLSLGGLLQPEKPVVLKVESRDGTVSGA
T1 sequence (P08684 whole entry): as above
Chain of CYP2C9 (P11712 whole entry): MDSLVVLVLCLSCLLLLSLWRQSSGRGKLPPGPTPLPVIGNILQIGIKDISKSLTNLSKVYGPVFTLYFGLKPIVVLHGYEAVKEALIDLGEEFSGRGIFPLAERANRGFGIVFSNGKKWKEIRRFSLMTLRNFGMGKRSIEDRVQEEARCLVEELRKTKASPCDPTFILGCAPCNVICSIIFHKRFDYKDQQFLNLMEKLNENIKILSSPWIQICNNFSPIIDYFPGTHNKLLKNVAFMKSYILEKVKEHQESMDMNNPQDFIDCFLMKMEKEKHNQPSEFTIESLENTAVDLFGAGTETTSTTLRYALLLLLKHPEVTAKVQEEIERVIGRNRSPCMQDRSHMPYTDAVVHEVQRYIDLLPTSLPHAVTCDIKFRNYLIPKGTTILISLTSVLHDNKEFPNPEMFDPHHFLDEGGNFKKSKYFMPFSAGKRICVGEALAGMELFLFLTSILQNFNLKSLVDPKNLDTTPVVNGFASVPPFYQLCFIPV
Chain of CYP2C19 (P33261 whole entry): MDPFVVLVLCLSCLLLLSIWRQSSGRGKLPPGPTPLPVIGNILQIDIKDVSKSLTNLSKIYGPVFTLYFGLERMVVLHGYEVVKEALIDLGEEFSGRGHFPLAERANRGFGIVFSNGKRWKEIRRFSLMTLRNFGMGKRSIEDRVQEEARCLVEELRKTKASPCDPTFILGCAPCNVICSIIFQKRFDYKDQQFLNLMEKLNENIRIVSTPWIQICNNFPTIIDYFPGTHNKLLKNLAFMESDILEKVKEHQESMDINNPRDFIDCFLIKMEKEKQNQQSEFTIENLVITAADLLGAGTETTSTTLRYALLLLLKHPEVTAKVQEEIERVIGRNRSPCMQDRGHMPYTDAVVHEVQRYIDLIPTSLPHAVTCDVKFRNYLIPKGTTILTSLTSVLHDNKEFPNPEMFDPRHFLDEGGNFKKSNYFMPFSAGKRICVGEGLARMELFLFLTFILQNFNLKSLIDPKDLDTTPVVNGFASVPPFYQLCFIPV
Chain of Cytochrome P450 3A4 (Homo sapiens, UniProt P08684, C239S) (P08684 2-503 C239S limits assumed): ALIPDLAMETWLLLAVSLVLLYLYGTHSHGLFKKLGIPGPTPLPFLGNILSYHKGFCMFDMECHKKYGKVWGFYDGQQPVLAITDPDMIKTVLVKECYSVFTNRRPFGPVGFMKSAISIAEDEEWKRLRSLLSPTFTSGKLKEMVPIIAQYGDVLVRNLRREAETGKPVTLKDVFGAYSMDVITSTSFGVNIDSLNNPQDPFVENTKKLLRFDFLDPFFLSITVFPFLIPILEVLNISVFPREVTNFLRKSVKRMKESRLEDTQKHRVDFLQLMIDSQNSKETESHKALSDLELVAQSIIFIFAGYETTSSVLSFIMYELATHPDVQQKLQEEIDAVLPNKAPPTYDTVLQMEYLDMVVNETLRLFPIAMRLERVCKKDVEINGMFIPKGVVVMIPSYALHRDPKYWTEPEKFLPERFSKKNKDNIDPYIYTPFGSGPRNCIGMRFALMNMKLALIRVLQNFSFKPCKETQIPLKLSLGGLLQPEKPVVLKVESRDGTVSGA
Chain of CYP3A5 (P20815 whole entry): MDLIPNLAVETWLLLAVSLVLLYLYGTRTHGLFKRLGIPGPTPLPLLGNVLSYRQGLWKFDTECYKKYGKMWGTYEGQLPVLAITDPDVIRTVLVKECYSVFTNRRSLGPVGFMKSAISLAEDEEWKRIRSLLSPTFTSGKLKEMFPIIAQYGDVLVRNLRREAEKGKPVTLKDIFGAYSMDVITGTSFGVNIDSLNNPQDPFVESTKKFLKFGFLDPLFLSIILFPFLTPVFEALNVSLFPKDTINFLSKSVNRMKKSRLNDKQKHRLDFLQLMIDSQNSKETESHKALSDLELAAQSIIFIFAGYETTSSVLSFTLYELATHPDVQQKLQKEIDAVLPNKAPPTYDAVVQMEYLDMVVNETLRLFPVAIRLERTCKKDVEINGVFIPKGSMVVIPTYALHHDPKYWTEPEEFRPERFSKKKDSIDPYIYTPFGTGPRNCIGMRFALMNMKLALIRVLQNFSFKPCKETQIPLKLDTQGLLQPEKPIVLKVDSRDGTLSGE
Chain of CYP2D6 (P10635 whole entry): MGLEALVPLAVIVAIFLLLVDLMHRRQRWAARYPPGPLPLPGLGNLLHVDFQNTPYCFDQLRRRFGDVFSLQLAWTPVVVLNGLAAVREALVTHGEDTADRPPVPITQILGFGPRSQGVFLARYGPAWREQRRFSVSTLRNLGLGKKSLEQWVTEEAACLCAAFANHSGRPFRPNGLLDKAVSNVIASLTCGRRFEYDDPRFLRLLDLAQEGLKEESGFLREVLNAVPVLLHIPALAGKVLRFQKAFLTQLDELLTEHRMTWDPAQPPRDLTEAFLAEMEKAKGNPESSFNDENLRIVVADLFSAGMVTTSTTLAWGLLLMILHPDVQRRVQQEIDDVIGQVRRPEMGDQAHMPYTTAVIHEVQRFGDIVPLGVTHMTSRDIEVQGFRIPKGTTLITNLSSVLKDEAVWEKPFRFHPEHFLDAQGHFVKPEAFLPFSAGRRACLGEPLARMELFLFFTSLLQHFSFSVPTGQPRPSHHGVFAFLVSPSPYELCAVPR
Chain of CYP2E1 (P05181 whole entry): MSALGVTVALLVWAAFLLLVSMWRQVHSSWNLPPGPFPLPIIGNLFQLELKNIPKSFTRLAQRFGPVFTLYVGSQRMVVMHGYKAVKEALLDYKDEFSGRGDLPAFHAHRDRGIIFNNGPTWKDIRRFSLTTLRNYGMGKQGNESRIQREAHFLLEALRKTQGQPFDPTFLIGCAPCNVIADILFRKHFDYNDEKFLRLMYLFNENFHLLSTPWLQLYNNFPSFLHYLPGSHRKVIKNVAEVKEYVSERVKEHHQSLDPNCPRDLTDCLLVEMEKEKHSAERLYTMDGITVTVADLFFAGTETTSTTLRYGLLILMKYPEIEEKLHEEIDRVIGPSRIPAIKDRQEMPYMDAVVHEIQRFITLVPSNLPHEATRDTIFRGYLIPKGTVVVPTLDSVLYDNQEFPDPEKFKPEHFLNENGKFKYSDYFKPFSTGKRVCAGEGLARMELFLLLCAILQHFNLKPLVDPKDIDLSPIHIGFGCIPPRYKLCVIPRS

Question: Which results are given for `COc1ccc2c(c[n+](C)c3c4cc5c(cc4ccc23)OCO5)c1OC.[Cl-]` [CHELERYTHRINE CHLORIDE]?
Answer: activity at 0.25 h, 50 µM (CYP2C19): > 50%; activity at 0.25 h, 50 µM (CYP2D6): > 50%; inhibition (INH) (Cytochrome P450 3A4 [1]): Active; activity at 0.25 h, 50 µM (CYP3A4 [2]): 85.9%; Drug metabolism [3]: Metabolite_Detected; activity at 0.25 h, 50 µM (CYP3A4 [4]): 26%; activity at 0.25 h, 50 µM (CYP2A6): > 50%; activity at 0.25 h, 50 µM (CYP3A4 [5]): 43.8%; activity at 0.25 h, 50 µM (CYP2C9): > 50%; Drug metabolism [6]: Metabolite_Notdetected; activity at 0 min, 50 µM (CYP3A4 [7]): 70.7%; inhibition (INH) (Cytochrome P450 3A4 [8]): Tde; activity at 0.25 h, 50 µM (CYP3A5): > 50%; Drug metabolism [9]: Metabolite_Notdetected; activity at 0.25 h, 50 µM (CYP1A2): > 50%; activity at 50 µM (CYP3A4 [10]): 50%; inhibition at 0.25 h, 50 µM (CYP3A4 [11]): 75%; inhibition (INH) (Cytochrome P450 3A4 [12]): Dose-Dependent Effect; inhibition (INH) (Cytochrome P450 3A4 [13]): Active; activity at 0.25 h, 50 µM (CYP3A4 [14]): 25.1%; activity at 0.25 h, 50 µM (CYP2E1): > 50%; inhibition (INH) (Cytochrome P450 3A4 [15]): Active; activity at 0.25 h, 50 µM (CYP2B6): > 50%; activity at 0.25 h, 50 µM (CYP3A4 [16]): 26.3%; activity at 0.25 h, 50 µM (CYP3A4 [17]): 49.9%; inhibition (INH) (Cytochrome P450 3A4 [18]): Not Active

Question: Which TDI (Cytochrome P450 3A4 [19]) does the source give for `COc1ccc2c(c1OC)CN(C)c1c-2ccc2cc3c(cc12)OCO3` [DIHYDROCHELERYTHRINE] here?
Answer: Not Active

Question: With `COc1cc2c[n+](C)c3c4cc5c(cc4ccc3c2cc1OC)OCO5.[Cl-]` [NITIDINE CHLORIDE] as the compound, how does the Drug metabolism [3] read?
Answer: Metabolite_Notdetected

Question: And the Drug metabolism [6]?
Answer: Metabolite_Notdetected

Question: And the Drug metabolism [9]?
Answer: Metabolite_Notdetected

Question: And the TDI (Cytochrome P450 3A4 [20])?
Answer: Active
